One may read the IC50 as the concentration at which inhibition is half-maximal.

Chain of YAP-TEAD protein interaction (His-TEAD1 (209-426) protein, Bio-YAP peptide (60-100)) (P28347 209-426): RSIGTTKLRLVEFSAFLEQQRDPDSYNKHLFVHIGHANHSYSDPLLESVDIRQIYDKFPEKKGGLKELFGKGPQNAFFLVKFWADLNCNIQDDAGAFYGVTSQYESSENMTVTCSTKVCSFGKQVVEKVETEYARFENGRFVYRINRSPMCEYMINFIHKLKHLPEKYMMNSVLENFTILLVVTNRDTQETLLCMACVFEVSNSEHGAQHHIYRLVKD

The target in this test is YAP-TEAD protein interaction (His-TEAD1 (209-426) protein, Bio-YAP peptide (60-100)) (Homo sapiens, UniProt P28347). In words: YAP-TEAD protein interaction HTRF experiment. The test is classed as binding. Particulars: His-TEAD1 (209-426) 10 nM, Bio-YAP peptide 50 nM, read-out: Activity of each compound in blocking YAP-TEAD protein interaction (grades of IC50 values). The method, then:
In this example, the YAP-TEAD protein interaction HTRF experiment was used to detect the activity of each compound in blocking the YAP-TEAD protein interaction.
The experiment was carried out according to the following operation steps:
Step 1: His-TEAD1 (209-426) protein was added to a 384-well detection white plate to a final concentration of 10 nM, and buffer was used as the background signal well. The compounds to be tested were subjected to 3-fold dilution and a total of 10 concentration gradients were set up, and each diluted solution was mixed well. A certain volume of the compound to be tested was added to each well separately, 2 replicates were set for each concentration, and the final concentration of DMSO was controlled at 1%. Incubation was carried out at room temperature for 20 minutes. The amino acid sequence of TAED1 (209-426) used in this step is shown in SEQ ID NO: 1:
After mixing evenly, the mixture was incubated at room temperature for 10 minutes.
Step 3: Anti-His-Eu cryptate gold and streptavidin-XL665 were diluted according to the instructions and mixed in equal proportions. A certain volume of the detection reagent was added to the well, and the mixture was incubated at room temperature for 1 hour.
Step 4: The signal was detected using an Envision (Perkin Elmer) microplate reader at an excitation wavelength of 320 nm and emission wavelengths of 665 nm and 620 nm.
Step 5: The signal was calculated based on the ratio of Em665/Em620*10000.
The inhibition percentage (%) was calculated using the following formula: […]
The half-maximal inhibitory concentration (IC50) values were calculated using GraphPad Prism software.
In general terms: Time-resolved FRET reads energy transfer from a long-lived donor to a nearby acceptor.
On to `Cn1cc2c(n1)COc1c-2cc(C(N)=O)c(-c2c(Cl)c(F)cc3c2C[C@](c2ccccc2)([C@@H]2CCCN2)O3)c1F` (atropisomer, axis not shown) [Compound 3′, (R)-7-((S)-5-Chloro-6-fluoro-2-phenyl-2-((S)-pyrrolidin-2-yl)-2,3-dihydrobenzofuran-4-yl)-6-fluoro-2-methyl-2,4-dihydrochromeno[3,4-c]pyrazole-8-carboxamide], for which the 50% inhibitory concentration (IC50) was 50 to 500 nM.

As to `Cc1nnc2n1-c1cc(C(N)=O)c(-c3c(Cl)c(F)cc4c3C[C@](c3ccccc3)([C@@H]3CCCN3)O4)c(F)c1OC2` (atropisomer, axis not shown) [Compound 43, (S)-7-((S)-5-Chloro-6-fluoro-2-phenyl-2-((S)-pyrrolidin-2-yl)-2,3-dihydrobenzofuran-4-yl)-6-fluoro-1-methyl-4H-benzo[b][1,2,4]triazolo[4,3-d][1,4]oxazine-8-carboxamide], the IC50 lay in the range of 50 to 500 nM.

Turning to `NC(=O)c1cc2c(c(F)c1-c1c(Cl)c(F)cc3c1C[C@](c1ccccc1)([C@@H]1CCCN1)O3)Oc1ncnc(N)c1O2` (atropisomer, axis not shown) [Compound 113, (S)-4-Amino-8-((S)-5-chloro-6-fluoro-2-phenyl-2-((S)-pyrrolidin-2-yl)-2,3-dihydrobenzofuran-4-yl)-9-fluorobenzo[5,6][1,4]dioxo [2,3-d]pyrimidine-7-carboxamide], the IC50 lay in the range of 50 to 500 nM.

As for `[2H]c1c([2H])c([2H])c([C@]2([C@@H]3CCCN3)Cc3c(cc(F)c(Cl)c3-c3c(C(N)=O)cc4c(c3F)OCc3nn(C)cc3-4)O2)c([2H])c1[2H]` (atropisomer, axis not shown) [Compound 117, (S)-7-((S)-5-Chloro-6-fluoro-2-(phenyl-d5)-2-((S)-pyrrolidin-2-yl)-2,3-dihydrobenzofuran-4-yl)-6-fluoro-2-methyl-2,4-dihydrochromeno[3,4-c]pyrazole-8-carboxamide], the IC50 is more than 5000 nM.

Take `NC(=O)c1cc2c(c(F)c1-c1c(Cl)c(F)cc3c1C[C@](c1ccccc1)([C@@H]1CCCN1)O3)Oc1c(cnn(C3COC3)c1=O)O2` (atropisomer, axis not shown) [Compound 145, (S)-8-((S)-5-Chloro-6-fluoro-2-phenyl-2-((S)-pyrrolidin-2-yl)-2,3-dihydrobenzofuran-4-)-9-fluoro-2-(oxetan-3-yl)-1-oxo-1,2-dihydrobenzo[5,6][1,4]dioxo [2,3-d]pyridazine-7-carboxamide]: the IC50 is less than 50 nM.

For `CNC[C@@]1(c2ccccc2)Cc2c(cc(F)c(Cl)c2-c2c(C(N)=O)cc3c(ccn3C)c2F)O1` (atropisomer, axis not shown) [Compound I-2, (S)-5-((S)-5-Chloro-6-fluoro-2-((methylamino)methyl)-2-phenyl-2,3-dihydrobenzofuran-4-yl)-4-fluoro-1-methyl-1H-indole-6-carboxamide], the IC50 was less than 50 nM.

Consider `NC(=O)c1cn2ccnc2c(F)c1-c1c(Cl)c(F)cc2c1C[C@](c1ccccc1)([C@@H]1CCCN1)O2` (atropisomer, axis not shown) [Compound I-11, (S)-7-((S)-5-Chloro-6-fluoro-2-phenyl-2-((S)-pyrrolidin-2-yl)-2,3-dihydrobenzofuran-4-yl)-8-fluoroimidazo[1,2-a]pyridine-6-carboxamide], for which the IC50 was less than 50 nM.

As to `CNC(=O)c1cc2c(c(F)c1-c1c(Cl)c(F)cc3c1C[C@](c1ccccc1)([C@@H]1CCCN1)O3)OCCN2` (atropisomer, axis not shown) [Compound I-26, (S)-7-((2S)-5-Chloro-6-fluoro-2-phenyl-2-((S)-pyrrolidin-2-yl)-2,3-dihydrobenzofuran-4-yl)-8-fluoro-N-methyl-3,4-dihydro-2H-benzo[b][1,4]oxazine-6-carboxamide], the IC50 is less than 50 nM.

As for `NC(=O)c1cc2c(c(F)c1-c1c(Cl)c(F)cc3c1C[C@](c1ccccc1)([C@@H]1CCCN1)O3)OCC2` (atropisomer, axis not shown) [Compound I-31, (2S,4S)-5-Chloro-6,7′-difluoro-2-phenyl-2-((S)-pyrrolidin-2-yl)-2,2′,3,3′-tetrahydrofuran-[4,6′-bibenzofuran]-5′-carboxamide], the IC50 was less than 50 nM.

As to `NC(=O)c1cc2c(c(F)c1-c1c(Cl)c(F)cc3c1C[C@](c1ccccc1)([C@@H]1CCCN1)O3)OCCOC2` (atropisomer, axis not shown) [Compound I-54, (S)-8-((S)-5-Chloro-6-fluoro-2-phenyl-2-((S)-pyrrolidin-2-yl)-2,3-dihydrobenzofuran-4-yl)-9-fluoro-2,3-trihydro-5H-benzo[e][1,4]dioxa-7-carboxamide], the IC50 was less than 50 nM.

Consider `NC(=O)c1cc2c(c(F)c1-c1c(Cl)c(F)cc3c1C[C@](c1ccccc1)([C@@H]1CCCN1)O3)[C@@H](O)CC2` (atropisomer, axis not shown) [Compound I-57, (1S,6S)-6-((S)-5-Chloro-6-fluoro-2-phenyl-2-((S)-pyrrolidin-2-yl)-2,3-dihydrobenzofuran-4-yl)-7-fluoro-1-hydroxy-2,3-dihydro-1H-indene-5-carboxamide], for which the IC50 was less than 50 nM.

With `NC(=O)c1cc2c(c(F)c1-c1c(Cl)c(F)cc3c1C[C@](c1ccccc1)([C@@H]1CCCN1)O3)[C@H](O)CC2` (atropisomer, axis not shown) [Compound I-58, (1R,6S)-6-((S)-5-Chloro-6-fluoro-2-phenyl-2-((S)-pyrrolidin-2-yl)-2,3-dihydrobenzofuran-4-yl)-7-fluoro-1-hydroxy-2,3-dihydro-1H-indene-5-carboxamide], the IC50 is 50 to 500 nM.

Take `CNC(=O)c1cc2c(c(F)c1-c1c(Cl)c(F)cc3c1C[C@](c1ccccc1)([C@@H]1CCCN1)O3)[C@@H](O)CC2` (atropisomer, axis not shown) [Compound I-59, (1S,6S)-6-((S)-5-Chloro-6-fluoro-2-phenyl-2-((S)-pyrrolidin-2-yl)-2,3-dihydrobenzofuran-4-yl)-7-fluoro-1-hydroxy-N-methyl-2,3-dihydro-1H-indene-5-carboxamide]: the IC50 was less than 50 nM.

Take `CNC(=O)c1cc2c(c(F)c1-c1c(Cl)c(F)cc3c1C[C@](c1ccccc1)([C@@H]1CCCN1)O3)[C@H](O)CC2` (atropisomer, axis not shown) [Compound I-60, (1R,6S)-6-((S)-5-Chloro-6-fluoro-2-phenyl-2-((S)-pyrrolidin-2-yl)-2,3-dihydrobenzofuran-4-yl)-7-fluoro-1-hydroxy-N-methyl-2,3-dihydro-1H-indene-5-carboxamide]: the IC50 lay within 50 to 500 nM.

As for `NC(=O)c1cc2c(c(F)c1-c1c(Cl)c(F)cc3c1C[C@](c1ccccc1)([C@@H]1CCCN1)O3)OCCO2` [Compound 1′, 7-((2S,4R)-5-Chloro-6-fluoro-2-phenyl-2-((S)-pyrrolidin-2-yl)-2,3-dihydrobenzofuran-4-yl)-8-fluoro-2,3-dihydrobenzo[b][1,4]dioxine-6-carboxamide], the IC50 lay within 50 to 500 nM.

On to `Cn1cc2c(n1)COc1c-2cc(C(N)=O)c(-c2c(Cl)c(F)cc3c2C[C@](c2ccccc2)([C@@H]2CC(O)CN2)O3)c1F` (stereo partly drawn) [Compound 55, (7S)-7-((2S)-5-Chloro-6-fluoro-2-((2S)-4-hydroxypyrrolidin-2-yl)-2-phenyl-2,3-dihydrobenzofuran-4-yl)-6-fluoro-2-methyl-2,4-dihydrochromeno[3,4-c]pyrazole-8-carboxamide], for which the IC50 was in the range of 500 to 5000 nM.

In the case of `NC(=O)c1cc2c(c(F)c1-c1c(Cl)c(F)cc3c1C[C@](c1ccccc1)([C@@H]1CCCN1)O3)OC(CO)C2` (stereo partly drawn) [Compound I-52, (2S,6′S)-5-Chloro-6,7′-difluoro-2′-(hydroxymethyl)-2-phenyl-2-((S)-pyrrolidin-2-yl)-2,2′,3,3′-tetrahydro-[4,6′-bibenzofuran]-5′-carboxamide], the IC50 is less than 50 nM.

Regarding `NC(=O)c1cc2c(c(F)c1-c1c(Cl)c(F)cc3c1C[C@](c1ccccc1)([C@@H]1CCCN1)O3)OC(CO)CO2` (stereo partly drawn) [Compound I-53, (S)-7-((S)-5-Chloro-6-fluoro-2-phenyl-2-((S)-pyrrolidin-2-yl)-2,3-dihydrobenzofuran-4-yl)-8-fluoro-2-(hydroxymethyl)-2,4-dihydrobenzo[b][1,4] dioxoine-6-carboxamide], the IC50 is less than 50 nM.

Turning to `N#CCC1Cc2cc(C(N)=O)c(-c3c(Cl)c(F)cc4c3C[C@](c3ccccc3)([C@@H]3CCCN3)O4)c(F)c2O1` (stereo partly drawn) [Compound I-55, (2S)-5-Chloro-2′-(cyanomethyl)-6,7′-difluoro-2-phenyl-2-((S)-pyrrolidin-2-yl)-2,2′,3,3′-tetrahydro-[4,6′-bibenzofuran]-5′-carboxamide], the IC50 was less than 50 nM.

For `CNC(=O)c1cc2c(c(F)c1-c1c(Cl)c(F)cc3c1C[C@](c1ccccc1)([C@@H]1CCCN1)O3)OC(CO)CO2` (stereo partly drawn) [Compound I-56, (S)-7-((S)-5-Chloro-6-fluoro-2-phenyl-2-((S)-pyrrolidin-2-yl)-2,3-dihydrobenzofuran-4-yl)-8-fluoro-2-(hydroxymethyl)-N-methyl-2,3-dihydrobenzo[b][1,4] dioxoine-6-carboxamide], the IC50 was less than 50 nM.
